Patent publication US12439945B2, “Method of improving flavor of a composition of (D)-β-hydroxybutyric acid and (D)-1,3 butanediol and use as a nutritional supplement and therapeutic agent” (VitaNav, Inc., priority 2020, dated 2025)

Assay: Circulating ketone level and ketotic efficiency after administration of D-BHB, D-BHV and D-1,3BD in various ratios to subjects at rest
Assay type: in vivo, human
Conditions: based on measured plasma levels of FIG. 1
From the text: Examples include using a composition including D-BHB, D-BHV, and D-1,3BD in a subject at rest. The ketotic efficiency represents the net elevation of circulating ketones a ketone supplement affects over time in an individual. Ketotic efficiency may be represented as: Σt=0^n(mMol/L)/(g/kg)*t where mMol/L is the concentration of circulating β-hydroxybutyrate in the blood, g is the total dose of the combined D-BHB, D-BHV, and D-1,3,BD in grams, kg is the mass of the individual in kilograms, and t is an increment of time in minutes.
While this example pertains to a fasted subject at rest, the relative utility of blended vs pure constituents has also been observed in fed and active subjects.
As illustrated by the examples of FIG. 1, these exemplary compositions can advantageously elevate circulating ketones by approximately two times greater than other known compositions. Such a composition can sustain ketonemia for longer than either D-BHB or D-1,3BD can when ingested alone by a subject of a given weight as shown by the 100% line (i.e., contains D-BHB, but not D-1,3BD) and the 0% line (i.e., contains only D-1,3BD, but not D-BHB).
As shown in the following table, the increase in circulating ketone level with a 10 g dose in three human subjects at rest was maximal at between 45-55% D-BHB in the tested compositions. […]

SMILES | prolonged rise of blood ketone levels
CC(O)CC(=O)O [D-BHB, (D)-β-hydroxybutyric acid] | A similar result was obtained
CC(O)CCO [D-1,3BD, (D)-1,3 butanediol] | does not cause a prolonged rise of blood ketone levels
